In brackets after ≈: the same amount, converted by molar mass.
How the values were obtained:
Type in all cases: functional
[1] = tested on: Parabacteroides distasonis; experiment: Antimicrobial activity against Parabacteroides distasonis by Wadsworth agar dilution method
Bacteroides ovatus = experiment: Antimicrobial activity against Bacteroides ovatus by Wadsworth agar dilution method
[2] = tested on: Bacteroides thetaiotaomicron; experiment: Antimicrobial activity against Bacteroides thetaiotaomicron by Wadsworth agar dilution method
Bacteroides nordii = experiment: Antimicrobial activity against Bacteroides nordii by Wadsworth agar dilution method
Bacteroides stercoris = experiment: Antimicrobial activity against Bacteroides stercoris by Wadsworth agar dilution method
Bacteroides uniformis = experiment: Antimicrobial activity against Bacteroides uniformis by Wadsworth agar dilution method
Bilophila wadsworthia = experiment: Antimicrobial activity against Bilophila wadsworthia by Wadsworth agar dilution method in presence of 1% pyruvic acid
[3] = tested on: Desulfovibrio desulfuricans; experiment: Antimicrobial activity against Desulfovibrio desulfuricans by Wadsworth agar dilution method
Desulfovibrio piger = experiment: Antimicrobial activity against Desulfovibrio piger by Wadsworth agar dilution method
Desulfovibrio vulgaris = experiment: Antimicrobial activity against Desulfovibrio vulgaris by Wadsworth agar dilution method; conditions: Nitratidesulfovibrio vulgaris
Fusobacterium nucleatum = experiment: Antimicrobial activity against Fusobacterium nucleatum by Wadsworth agar dilution method
Fusobacterium varium = experiment: Antimicrobial activity against Fusobacterium varium by Wadsworth agar dilution method
Fusobacterium sp. = experiment: Antimicrobial activity against Fusobacterium sp. by Wadsworth agar dilution method
Porphyromonas = experiment: Antimicrobial activity against Porphyromonas sp. by Wadsworth agar dilution method
Porphyromonas uenonis = experiment: Antimicrobial activity against Porphyromonas uenonis by Wadsworth agar dilution method
Prevotella corporis = experiment: Antimicrobial activity against Prevotella corporis by Wadsworth agar dilution method
[4] = tested on: Enterocloster clostridioformis; experiment: Antimicrobial activity against Clostridium clostridioforme by Wadsworth agar dilution method
[5] = tested on: Clostridium acetobutylicum; experiment: Antimicrobial activity against Clostridium acetobutylicum by Wadsworth agar dilution method
Clostridium beijerinckii = experiment: Antimicrobial activity against Clostridium beijerinckii by Wadsworth agar dilution method
Clostridium butyricum = experiment: Antimicrobial activity against Clostridium butyricum by Wadsworth agar dilution method
Clostridium cadaveris = experiment: Antimicrobial activity against Clostridium cadaveris by Wadsworth agar dilution method
Clostridium disporicum = experiment: Antimicrobial activity against Clostridium disporicum by Wadsworth agar dilution method
Clostridium fallax = experiment: Antimicrobial activity against Clostridium fallax by Wadsworth agar dilution method
Tissierella praeacuta = experiment: Antimicrobial activity against Clostridium hastiforme by Wadsworth agar dilution method
[6] = tested on: Clostridium lactatifermentans; experiment: Antimicrobial activity against Clostridium lactatifermentans by Wadsworth agar dilution method; conditions: Anaerotignum lactatifermentans
Clostridium scindens = experiment: Antimicrobial activity against Clostridium scindens by Wadsworth agar dilution method
Clostridium sp. = experiment: Antimicrobial activity against Clostridium sp. by Wadsworth agar dilution method
Clostridium spiroforme = experiment: Antimicrobial activity against Clostridium spiroforme by Wadsworth agar dilution method; conditions: Thomasclavelia spiroformis
Clostridium sporogenes = experiment: Antimicrobial activity against Clostridium sporogenes by Wadsworth agar dilution method
Clostridium subterminale = experiment: Antimicrobial activity against Clostridium subterminale by Wadsworth agar dilution method
Clostridium symbiosum = experiment: Antimicrobial activity against Clostridium symbiosum by Wadsworth agar dilution method
Clostridium tertium = experiment: Antimicrobial activity against Clostridium tertium by Wadsworth agar dilution method
Schaalia meyeri = experiment: Antimicrobial activity against Actinomyces meyeri by Wadsworth agar dilution method
Actinomyces viscosus = experiment: Antimicrobial activity against Actinomyces viscosus by Wadsworth agar dilution method
Bifidobacterium breve = experiment: Antimicrobial activity against Bifidobacterium breve by Wadsworth agar dilution method
Bifidobacterium dentium = experiment: Antimicrobial activity against Bifidobacterium dentium by Wadsworth agar dilution method
[7] = tested on: Catenibacterium mitsuokai; experiment: Antimicrobial activity against Catenibacterium mitsuokai by Wadsworth agar dilution method
[8] = tested on: Coprobacillus cateniformis; experiment: Antimicrobial activity against Coprobacillus cateniformis by Wadsworth agar dilution method
Eggerthella lenta = experiment: Antimicrobial activity against Eggerthella lenta by Wadsworth agar dilution method
Eubacterium callanderi = experiment: Antimicrobial activity against Eubacterium callanderi by Wadsworth agar dilution method
Eubacterium limosum = experiment: Antimicrobial activity against Eubacterium limosum by Wadsworth agar dilution method
Eubacterium saburreum = experiment: Antimicrobial activity against Eubacterium saburreum by Wadsworth agar dilution method; conditions: Lachnoanaerobaculum saburreum
[9] = tested on: Lactobacillus acidophilus; experiment: Antimicrobial activity against Lactobacillus acidophilus by Wadsworth agar dilution method
[10] = tested on: Lactobacillus catenaformis; experiment: Antimicrobial activity against Lactobacillus catenaformis by Wadsworth agar dilution method; conditions: Eggerthia catenaformis
[11] = tested on: Peptoniphilus asaccharolyticus; experiment: Antimicrobial activity against Peptoniphilus asaccharolyticus by Wadsworth agar dilution method
Ruminococcus gnavus = experiment: Antimicrobial activity against Ruminococcus gnavus by Wadsworth agar dilution method; conditions: Mediterraneibacter gnavus
Ruminococcus lactaris = experiment: Antimicrobial activity against Ruminococcus lactaris by Wadsworth agar dilution method

Compound: CC(=O)Oc1ccccc1C(=O)Nc1ncc([N+](=O)[O-])s1 [NITAZOXANIDE]
- MIC50 [1]: 4 µg/mL (≈ 13 µM)
- MIC90 [1]: 4 µg/mL (≈ 13 µM)
- MIC50 (Bacteroides ovatus): 2 µg/mL (≈ 6.51 µM)
- MIC90 (Bacteroides ovatus): 4 µg/mL (≈ 13 µM)
- MIC50 [2]: 2 µg/mL (≈ 6.51 µM)
- MIC90 [2]: 8 µg/mL (≈ 26 µM)
- MIC50 (Bacteroides nordii): 4 µg/mL (≈ 13 µM)
- MIC90 (Bacteroides nordii): 4 µg/mL (≈ 13 µM)
- MIC50 (Bacteroides stercoris): 4 µg/mL (≈ 13 µM)
- MIC90 (Bacteroides stercoris): 4 µg/mL (≈ 13 µM)
- MIC50 (Bacteroides uniformis): 4 µg/mL (≈ 13 µM)
- MIC90 (Bacteroides uniformis): 4 µg/mL (≈ 13 µM)
- MIC50 (Bilophila wadsworthia): 4 µg/mL
- MIC90 (Bilophila wadsworthia): 4 µg/mL
- MIC50 [3]: 4 µg/mL (≈ 13 µM)
- MIC90 [3]: 4 µg/mL (≈ 13 µM)
- MIC50 (Desulfovibrio piger): 1 µg/mL (≈ 3.25 µM)
- MIC90 (Desulfovibrio piger): 4 µg/mL (≈ 13 µM)
- MIC50 (Desulfovibrio vulgaris): 1 µg/mL (≈ 3.25 µM)
- MIC90 (Desulfovibrio vulgaris): 4 µg/mL (≈ 13 µM)
- MIC (Fusobacterium nucleatum): 0.25 µg/mL (≈ 0.814 µM)
- MIC50 (Fusobacterium nucleatum): 0.25 µg/mL (≈ 0.814 µM)
- MIC90 (Fusobacterium nucleatum): 0.5 µg/mL (≈ 1.63 µM)
- MIC50 (Fusobacterium varium): 1 µg/mL (≈ 3.25 µM)
- MIC90 (Fusobacterium varium): 8 µg/mL (≈ 26 µM)
- MIC50 (Fusobacterium sp.): 1 µg/mL (≈ 3.25 µM)
- MIC90 (Fusobacterium sp.): 8 µg/mL (≈ 26 µM)
- MIC50 (Porphyromonas): 0.5 µg/mL (≈ 1.63 µM)
- MIC90 (Porphyromonas): 1 µg/mL (≈ 3.25 µM)
- MIC50 (Porphyromonas uenonis): 0.5 µg/mL (≈ 1.63 µM)
- MIC90 (Porphyromonas uenonis): 1 µg/mL (≈ 3.25 µM)
- MIC50 (Prevotella corporis): 4 µg/mL (≈ 13 µM)
- MIC90 (Prevotella corporis): 8 µg/mL (≈ 26 µM)
- MIC50 [4]: 0.25 µg/mL (≈ 0.814 µM)
- MIC90 [4]: 0.25 µg/mL (≈ 0.814 µM)
- MIC50 [5]: 0.5 µg/mL (≈ 1.63 µM)
- MIC90 [5]: 4 µg/mL (≈ 13 µM)
- MIC50 (Clostridium beijerinckii): 0.5 µg/mL (≈ 1.63 µM)
- MIC90 (Clostridium beijerinckii): 4 µg/mL (≈ 13 µM)
- MIC50 (Clostridium butyricum): 0.5 µg/mL (≈ 1.63 µM)
- MIC90 (Clostridium butyricum): 4 µg/mL (≈ 13 µM)
- MIC50 (Clostridium cadaveris): 0.5 µg/mL (≈ 1.63 µM)
- MIC90 (Clostridium cadaveris): 4 µg/mL (≈ 13 µM)
- MIC50 (Clostridium disporicum): 0.5 µg/mL (≈ 1.63 µM)
- MIC90 (Clostridium disporicum): 4 µg/mL (≈ 13 µM)
- MIC50 (Clostridium fallax): 0.5 µg/mL (≈ 1.63 µM)
- MIC90 (Clostridium fallax): 4 µg/mL (≈ 13 µM)
- MIC50 (Tissierella praeacuta): 0.5 µg/mL (≈ 1.63 µM)
- MIC90 (Tissierella praeacuta): 4 µg/mL (≈ 13 µM)
- MIC50 [6]: 0.5 µg/mL (≈ 1.63 µM)
- MIC90 [6]: 4 µg/mL (≈ 13 µM)
- MIC50 (Clostridium scindens): 0.5 µg/mL (≈ 1.63 µM)
- MIC90 (Clostridium scindens): 4 µg/mL (≈ 13 µM)
- MIC50 (Clostridium sp.): 0.5 µg/mL (≈ 1.63 µM)
- MIC90 (Clostridium sp.): 4 µg/mL (≈ 13 µM)
- MIC50 (Clostridium spiroforme): 0.5 µg/mL (≈ 1.63 µM)
- MIC90 (Clostridium spiroforme): 4 µg/mL (≈ 13 µM)
- MIC50 (Clostridium sporogenes): 0.5 µg/mL (≈ 1.63 µM)
- MIC90 (Clostridium sporogenes): 4 µg/mL (≈ 13 µM)
- MIC50 (Clostridium subterminale): 0.5 µg/mL (≈ 1.63 µM)
- MIC90 (Clostridium subterminale): 4 µg/mL (≈ 13 µM)
- MIC50 (Clostridium symbiosum): 0.5 µg/mL (≈ 1.63 µM)
- MIC90 (Clostridium symbiosum): 4 µg/mL (≈ 13 µM)
- MIC50 (Clostridium tertium): 0.5 µg/mL (≈ 1.63 µM)
- MIC90 (Clostridium tertium): 4 µg/mL (≈ 13 µM)
- MIC50 (Schaalia meyeri): 2 µg/mL (≈ 6.51 µM)
- MIC90 (Schaalia meyeri): 32 µg/mL (≈ 104 µM)
- MIC50 (Actinomyces viscosus): 2 µg/mL (≈ 6.51 µM)
- MIC90 (Actinomyces viscosus): 32 µg/mL (≈ 104 µM)
- MIC50 (Bifidobacterium breve): 2 µg/mL (≈ 6.51 µM)
- MIC90 (Bifidobacterium breve): 32 µg/mL (≈ 104 µM)
- MIC50 (Bifidobacterium dentium): 2 µg/mL (≈ 6.51 µM)
- MIC90 (Bifidobacterium dentium): 32 µg/mL (≈ 104 µM)
- MIC50 [7]: 2 µg/mL (≈ 6.51 µM)
- MIC90 [7]: 32 µg/mL (≈ 104 µM)
- MIC50 [8]: 2 µg/mL (≈ 6.51 µM)
- MIC90 [8]: 32 µg/mL (≈ 104 µM)
- MIC50 (Eggerthella lenta): 2 µg/mL (≈ 6.51 µM)
- MIC90 (Eggerthella lenta): 32 µg/mL (≈ 104 µM)
- MIC50 (Eubacterium callanderi): 2 µg/mL (≈ 6.51 µM)
- MIC90 (Eubacterium callanderi): 32 µg/mL (≈ 104 µM)
- MIC50 (Eubacterium limosum): 2 µg/mL (≈ 6.51 µM)
- MIC90 (Eubacterium limosum): 32 µg/mL (≈ 104 µM)
- MIC50 (Eubacterium saburreum): 2 µg/mL (≈ 6.51 µM)
- MIC90 (Eubacterium saburreum): 32 µg/mL (≈ 104 µM)
- MIC50 [9]: 2 µg/mL (≈ 6.51 µM)
- MIC90 [9]: 32 µg/mL (≈ 104 µM)
- MIC50 [10]: 2 µg/mL (≈ 6.51 µM)
- MIC90 [10]: 32 µg/mL (≈ 104 µM)
- MIC50 [11]: 0.5 µg/mL (≈ 1.63 µM)
- MIC90 [11]: 1 µg/mL (≈ 3.25 µM)
- MIC50 (Ruminococcus gnavus): 0.5 µg/mL (≈ 1.63 µM)
- MIC90 (Ruminococcus gnavus): 1 µg/mL (≈ 3.25 µM)
- MIC50 (Ruminococcus lactaris): 0.5 µg/mL (≈ 1.63 µM)
- MIC90 (Ruminococcus lactaris): 1 µg/mL (≈ 3.25 µM)

From ChEMBL document CHEMBL1275577, “Study of the in vitro activities of rifaximin and comparator agents against 536 anaerobic intestinal bacteria from the perspective of potential utility in pathology involving bowel flora” (Antimicrob Agents Chemother, 2009)
